Source: patent US20190292516A1, “METHOD FOR IMPROVING PRODUCT TITER IN A CELL AND A CELL MEDIA FOR IMPROVING THE SAME” (VALITACELL LIMITED, priority 2018, published 2019)

Columns and labels:
Format in all cases: cell-based, Chinese Hamster
[1] = system: CHO-S stable clone producing an anti-Her2 like IgG1 antibody; assay: Deep well shaking plate culture with chemical enhancer added at Day 0 or Day 3; cell growth, viability and titer
Description: The Applicant uses a platform consisting of screening Chinese Hamster Ovary (CHO) cell clone leads grown in a deep well plate coated with media containing 3TAA. The cells are measured for increased growth and productivity (titer) to determine whether 3TAA, and other enhancer chemicals, have offered the optimum cell culture environment, and can improve the growth and/or productivity of promising lead clones, which otherwise, grown in sub-optimal conditions, would not have been selected. To establish optimum concentration for the best titer boost, high throughput experimentation was performed in 96 deep well plates (Greiner Bio-One, Gloucestershire, United Kingdom). The cell line used was a CHO-S stable clone producing an anti-Her2 like IgG1 antibody. Cells were cultured in CD CHO medium (Thermo Fisher Scientific, Paisley, UK), supplemented with 8 mM L-glutamine, 1% HT supplement and 12.5 ug/ml puromycin selection marker (Thermo Fisher Scientific, Paisley, UK). Cells grown in these plates were incubated at 320 rpm (25 mm throw), 37° C., 5% CO2 and 85% humidity. The plates were covered with vented lids and secured using clamps (“System Duetz”; Enzyscreen B.V., Heemstede, Netherlands). Cells were seeded at 0.2×10^6 cells ml^−1 with a seeding volume of 450 μL (unless specified otherwise). Chemical enhancer molecules, including 3TAA, were trialled at 4 to 10 different concentrations at Day 0 in culture. Subsequently, a subset of concentrations was carried forward for delayed addition at Day 3 of culture. Day 3 was chosen based on the cell growth profile in deep well plates. Cells were cultured for 5 days before culture attributes (cell growth and titer) were recorded, unless otherwise stated. Cell growth was measured using the PrestoBlue® Assay (ThermoFisher Scientific), viability was verified using the Vi-cell™ cell viability analyser (Beckmann Coulter, High Wycombe, UK), and titer was measured using the Valita™TITER assay (Valitacell, Dublin, Ireland).

[2] = Batch shake flask culture supplemented with 3TAA; conditions: Chinese hamster, CHO-S stable clone producing an anti-Her2 like IgG1 antibody, Day 0 addition
Description: (§1) Shake flask cultures were performed in vented Erlenmeyer flasks with a 30 ml working culture volume. Cells were seeded at 0.2×10^6 cells ml^−1. 3TAA was added at 2.5 mM (optimum concentrations from deep well plate culture) on Day 0. Growth and titer were monitored daily. Total RNA and histone extracts were collected from Day 5 of culture. Cell cycle and apoptosis analysis were performed on Day 4 and Day 5 post seeding respectively.

[3] = system: CHO-S stable clone producing an anti-Her2 like IgG1 antibody; assay: Batch shake flask culture supplemented with 3TAA; conditions: 2.5 mM, Day 0 addition, 10 days
Description: as §1

[4] = system: CHO-S stable clone producing an anti-Her2 like IgG1 antibody; assay: Apoptosis analysis of 3TAA supplemented shake flask cultures; conditions: 3TAA 2.5 mM added Day 0, shake flask, analysed Day 5
Description: as §1

[5] = system: CHO-S stable clone producing an anti-Her2 like IgG1 antibody; assay: Cell cycle analysis by propidium iodide staining and flow cytometry; conditions: 3TAA 2.5 mM added Day 0, shake flask, analysed Day 4
Description: as §1
1×10^6 cells were extracted from culture and fixed in 4% paraformaldehyde (Alfa Aesar; Thermo Fisher Scientific). The cells were then stained with propidium iodide using the FxCycle™ PI/RNase Staining Solution (Thermo Fisher Scientific). Cell cycle analysis was performed on the Attune Acoustic Focusing Cytometer (Thermo Fisher Scientific).

[6] = 3TAA 2.5 mM, Day 0 addition, deep well plate

O=C(O)Cc1ccsc1 [3TAA, 3-Thiopheneacetic acid]
reduction in IVCD ([1]; 2.5 mM, Day 0 addition): 25%
titer boost ([1]; 2.5 mM, Day 0 addition): 160%
reduction in IVCD ([1]; 2.5 mM, Day 3 addition): 20%
titer boost ([1]; 2.5 mM, Day 3 addition): 177%
reduction in IVCD ([1]; 4 mM, Day 0 addition): 50%
titer boost ([1]; 4 mM, Day 0 addition): 17%
reduction in IVCD ([1]; 4 mM, Day 3 addition): 25%
titer boost ([1]; 4 mM, Day 3 addition): 125%
cell growth reduction [1, 6]: 25%
titer boost [1, 6]: 1.59 fold
titer boost ([1]; delayed addition at exponential phase (Day 3), concentration not given): 2.6 fold
decrease in peak viable cell density at 10 days, 2.5 mM [2]: 30%
culture viability in comparison to vehicle and no addition controls [3]: remained unaffected
increase in total volumetric titer [3]: 1.9 fold
initiation of apoptotic pathways [4]: Apoptotic pathways were not initiated
increase in accumulation in the G1 phase [5]: 11%
